Article PMC7896091, “Synthesis of novel phytol-derived γ-butyrolactones and evaluation of their biological activity” (Scientific Reports, 2021)
Blank lines part the entries; values can stand above or below the compound they belong to.

Key:
LoVo/DX cells = assay: Antiproliferative activity, SRB assay, doxorubicin resistant subline; assay type: cell-based, human; conditions: for IC50: 72 h exposure, SRB, mean ± SD, n.a = no activity in concentration of 5, 25, 125, 625 μM; for Selectivity index SI, LoVo/DX: SI = IC50 BALB/3T3 / IC50 LoVo/DX
Method: Cell lines were cultured according to the protocol described before. […] All culture media were supplemented with 2 mM L-glutamine (Sigma-Aldrich, Germany), 100 units/mL penicillin, and 100 µg/mL streptomycin (both from Polfa Tarchomin S.A., Poland). All cell lines were grown at 37 °C with 5% CO2 humidified atmosphere. The solutions of the compounds (50 mM) were prepared by dissolving the substances in DMSO (Sigma Aldrich, Germany). […] The in vitro cytotoxic effect of all agents was examined using the MTT (MV4-11) or SRB assay, described previously. […] Each compound in each concentration was tested in triplicate in a single experiment, which was repeated 3–5 times.

A549 cells = assay: Antiproliferative activity, SRB assay; assay type: cell-based, human; conditions: for IC50: 72 h exposure, SRB, mean ± SD, n.a = no activity in concentration of 5, 25, 125, 625 μM; for Selectivity index SI, A549: SI = IC50 BALB/3T3 / IC50 A549
Method: (§1) Human biphenotypic B myelomonocytic leukemia MV4-11, human colon cancer LoVo cell line and normal mouse fibroblast BALB/3T3 cells were obtained from American Type Culture Collection (Rockville, Maryland, USA), human lung carcinoma A549 cells were obtained from European Collection of Authenticated Cell Cultures (UK). All the cell lines are being maintained at the Hirszfeld Institute of Immunology and Experimental Therapy, PAS, Wroclaw, Poland and were cultured according the procedure described before.
(§2) Cell lines were cultured according to the protocol described before. MV4-11 cells were cultured in RPMI 1640 medium (Gibco, UK) with 1.0 mM sodium pyruvate, and 10% fetal bovine serum (FBS) (all from Sigma-Aldrich, Germany). A549, LoVo and LoVo/DX cells were cultured in RPMI 1640 + Opti-MEM (1:1) (both from Gibco, UK) supplemented with 5% fetal bovine serum, 1.0 mM sodium pyruvate (LoVo and LoVo/DX cells) (all from Sigma Aldrich Germany) and 0.1 μg/mL doxorubicin chloride (Accord) (only LoVo/DX cells). BALB/3T3 cells in Dulbecco medium (IIET, Poland) supplemented with 10% fetal bovine serum (Sigma-Aldrich, Germany). All culture media were supplemented with 2 mM L-glutamine (Sigma-Aldrich, Germany), 100 units/mL penicillin, and 100 µg/mL streptomycin (both from Polfa Tarchomin S.A., Poland). All cell lines were grown at 37 °C with 5% CO2 humidified atmosphere.
(§3) The solutions of the compounds (50 mM) were prepared by dissolving the substances in DMSO (Sigma Aldrich, Germany). Then the tested compounds were diluted in culture medium to reach the final concentrations of 625, 125, 25 and 5 μM. Before adding of the tested compounds (24 h prior), the cells were plated in 96-well plates (Sarstedt, Germany) at a density of 1 × 10^4 or 0.5 × 10^4 (A549) cells per well. The assay was performed after 72 h of exposure to 625, 125, 25 and 5 μM of the tested agents. The in vitro cytotoxic effect of all agents was examined using the MTT (MV4-11) or SRB assay, described previously. The results were calculated as an IC50 (inhibitory concentration 50%) the concentration of tested agent, which is cytotoxic for 50% of the cancer cells. Each compound in each concentration was tested in triplicate in a single experiment, which was repeated 3–5 times.

LoVo cells = assay: Antiproliferative activity, SRB assay; assay type: cell-based, human; conditions: for IC50: 72 h exposure, SRB, mean ± SD, n.a = no activity in concentration of 5, 25, 125, 625 μM; for Selectivity index SI, LoVo: SI = IC50 BALB/3T3 / IC50 LoVo
Method: as §1, §2, §3

Myzus persicae = assay: Aphid settling (choice test) on treated vs control leaves of Brassica rapa subsp. pekinensis; assay type: in vivo; conditions: for Mean number of aphids settled on treated (test) leaf: 0.1% solution in 70% ethanol, mean (± SD), n = 8, 20 aphids/replicate; for Effect on aphid settling behavior (deterrent / attractant): choice test, 0.1% solution, significance p < 0.05 Student t-test
Method: The peach potato aphids Myzus persicae (Sulzer) and the Chinese cabbage Brassica rapa subsp. pekinensis (Lour.) Hanelt were reared in laboratory at 20 °C, 65% r.h., and L16:8D photoperiod. One to seven days old apterous females of M. persicae and 3-week old plants with 4–5 fully developed leaves were used for experiments. M. persicae were obtained from the laboratory culture maintained at the Department of Botany and Ecology for many generations since 2000. All experiments were carried out under the same conditions of temperature, relative humidity, and photoperiod. The bioassays were started at 10–11.a.m. Each compound was dissolved in 70% ethanol to obtain the recommended 0.1% solution[40]. All compounds were applied on the adaxial and abaxial leaf surfaces by immersing a leaf in the ethanolic solution of a given compound for 30 s.[20]. Control leaves of similar size were immersed in 70% ethanol that was used as a solvent for the studied compounds. Experiments were performed 1 h after the compounds application to allow the evaporation of the solvent. Every plant and aphid were used only once.
This bioassay allows the study of aphid host preferences under semi-natural conditions. In the present study, aphids were given free choice between control and treated excised leaves that were placed in a Petri dish. Aphids were placed in the dish equidistance from treated and untreated leaves, so that aphids could choose between treated (on one half of a Petri dish) and control leaves (on the other half of the dish). […] Each experiment was replicated 8 times (n = 8 replicates, 20 viviparous apterous females/replicate). Aphids that were moving or not on any of the leaves were not counted.
The data of the choice-test were analyzed using Student’s t-test (STATISTICA 13.1. package). […] If aphids settled mainly on the control leaf (p < 0.05), the compound tested in the respective choice-test was stated a deterrent. From the data thus obtained the relative index of deterrence (DI) was calculated: DI = (C − T/C + T) where C was the number of aphids settled on control leaf, T was the number of aphids settled on the leaf treated with the tested compound. The value of DI ranged between 1 (ideal deterrent) and − 1 (ideal attractant)[41].

BALB/3T3 cells = assay: Toxicity towards normal fibroblasts, SRB assay; assay type: cell-based; conditions: 72 h exposure, mean ± SD, n.a = no activity in concentration of 5, 25, 125, 625 μM
Method: as §1, §2, §3

[1] = BALB/3T3, normal mouse fibroblasts

Compound: 3,7,11,15-tetramethylhexadec-2-en-1-ol [Phytol (1), reference compound]
IC50 (LoVo/DX cells): 70.8 ± 3.9 µM
Selectivity index SI, LoVo/DX (LoVo/DX cells): 0.91
IC50 (A549 cells): 64.1 ± 5.2 µM
Selectivity index SI, A549 (A549 cells): 1.01
IC50 (LoVo cells): 255 ± 46.5 µM
Selectivity index SI, LoVo (LoVo cells): 0.25
Mean number of aphids settled on treated (test) leaf (Myzus persicae; 1 h after access): 10.4 (± 1.3)
Mean number of aphids settled on treated (test) leaf (Myzus persicae; 2 h after access): 7.9 (± 1.0)
Mean number of aphids settled on treated (test) leaf (Myzus persicae; 24 h after access): 6.6 (± 0.9)
Effect on aphid settling behavior (deterrent / attractant) (Myzus persicae): deterrent properties
IC50 (BALB/3T3 cells; normal mouse fibroblasts): 64.5 ± 12.9 µM

IC50 (LoVo/DX cells; Homo sapiens, LoVo/DX): 306 ± 136 µM
Compound: CC(C)CCCC(C)CCCC(C)CCC[C@]1(C)CC(=O)O[C@@H]1CBr (stereo in doubt) [compound 4, trans-5-Bromomethyl-4-methyl-4-(4′,8′,12′-trimethyltridecyl)dihydrofuran-2-one]
Selectivity index SI, LoVo/DX (LoVo/DX cells): 1.14
Mean number of aphids settled on treated (test) leaf (Myzus persicae; 1 h after access): 2.9 (± 0.7)
Mean number of aphids settled on treated (test) leaf (Myzus persicae; 2 h after access): 2.4 (± 0.6)
Mean number of aphids settled on treated (test) leaf (Myzus persicae; 24 h after access): 4.9 (± 1.7)
IC50 (BALB/3T3 cells; [1]): 348 ± 27.6 µM

IC50 (LoVo/DX cells; Homo sapiens, LoVo/DX): 261 ± 104 µM
Compound: CC(C)CCCC(C)CCCC(C)CCC[C@]1(C)CC(=O)O[C@H]1CBr (stereo in doubt) [compound 5, cis-5-Bromomethyl-4-methyl-4-(4′,8′,12′-trimethyltridecyl)dihydrofuran-2-one]
Selectivity index SI, LoVo/DX (LoVo/DX cells): 1.62
Mean number of aphids settled on treated (test) leaf (Myzus persicae; 1 h after access): 3.4 (± 1.0)
Mean number of aphids settled on treated (test) leaf (Myzus persicae; 2 h after access): 3.0 (± 1.1)
Mean number of aphids settled on treated (test) leaf (Myzus persicae; 24 h after access): 5.6 (± 1.4)
IC50 (BALB/3T3 cells; [1]): 424 ± 140 µM

IC50 (LoVo/DX cells; Homo sapiens, LoVo/DX): 188 ± 32.7 µM
IC50 (A549 cells; Homo sapiens, A549): 378 ± 32.8 µM
IC50 (LoVo cells; Homo sapiens, LoVo): 293 ± 33.1 µM
Compound: CC(C)CCCC(C)CCCC(C)CCC[C@]1(C)CC(=O)O[C@@H]1CCl (stereo in doubt) [compound 6, trans-5-Chloromethyl-4-methyl-4-(4′,8′,12′-trimethyltridecyl)dihydrofuran-2-one]
Selectivity index SI, LoVo/DX (LoVo/DX cells): 1.46
Selectivity index SI, A549 (A549 cells): 0.72
Selectivity index SI, LoVo (LoVo cells): 0.93
Mean number of aphids settled on treated (test) leaf (Myzus persicae; 1 h after access): 5.8 (± 1.3)
Mean number of aphids settled on treated (test) leaf (Myzus persicae; 2 h after access): 4.5 (± 1.1)
Mean number of aphids settled on treated (test) leaf (Myzus persicae; 24 h after access): 10.0 (± 1.7)
Effect on aphid settling behavior (deterrent / attractant) (Myzus persicae): attractant properties
IC50 (BALB/3T3 cells; [1]): 273 ± 16.4 µM

IC50 (LoVo/DX cells; Homo sapiens, LoVo/DX): 237 ± 52.9 µM
Compound: CC(C)CCCC(C)CCCC(C)CCC[C@]1(C)CC(=O)O[C@H]1CCl (stereo in doubt) [compound 7, cis-5-chloromethyl-4-methyl-4-(4′,8′,12′-trimethyltridecyl)dihydrofuran-2-one]
Mean number of aphids settled on treated (test) leaf (Myzus persicae; 1 h after access): 4.1 (± 1.0)
Mean number of aphids settled on treated (test) leaf (Myzus persicae; 2 h after access): 3.5 (± 0.7)
Mean number of aphids settled on treated (test) leaf (Myzus persicae; 24 h after access): 4.8 (± 0.9)

IC50 (LoVo/DX cells; Homo sapiens, LoVo/DX): 55 ± 1.5 µM
IC50 (A549 cells; Homo sapiens, A549): 49.5 ± 2.9 µM
IC50 (LoVo cells; Homo sapiens, LoVo): 59.5 ± 1.1 µM
Compound: C=CC(C)(CCCC(C)CCCC(C)CCCC(C)C)CC(=O)O (stereo not drawn) [compound 3, 3,7,11,15-tetramethyl-3-vinylhexadecanoic acid]
Selectivity index SI, LoVo/DX (LoVo/DX cells): 2.64
Selectivity index SI, A549 (A549 cells): 2.93
Selectivity index SI, LoVo (LoVo cells): 2.44
Mean number of aphids settled on treated (test) leaf (Myzus persicae; 1 h after access): 8.5 (± 2.1)
Mean number of aphids settled on treated (test) leaf (Myzus persicae; 2 h after access): 8.9 (± 1.0)
Mean number of aphids settled on treated (test) leaf (Myzus persicae; 24 h after access): 8.1 (± 1.3)
IC50 (BALB/3T3 cells; [1]): 145 ± 48 µM
